Test results from ChEMBL document CHEMBL1250510, “2,3-diarylxanthones as strong scavengers of reactive oxygen and nitrogen species: a structure-activity relationship study” (Bioorg Med Chem, 2010).
Calls of active or inactive are those of the source. The rule behind the calls is not given here.

How the values were obtained:
Format in all cases: functional
[1] = Antioxidant activity assessed as singlet oxygen scavenging activity at 100 uM by spectrophotometry
[2] = Antioxidant activity assessed as hypocholrous acid scavenging activity by spectrophotometry
[3] = Antioxidant activity assessed as superoxide radical scavenging activity by spectrophotometry
[4] = Antioxidant activity assessed as peroxynitrite scavenging activity by spectrophotometry in presence of NaHCO3
[5] = Antioxidant activity assessed as peroxynitrite scavenging activity by spectrophotometry in absence of NaHCO3
[6] = Antioxidant activity assessed as peroxyl radical scavenging activity assessed as trolox equivalent by spectrophotometry
[7] = Antioxidant activity assessed as nitric oxide scavenging activity by spectrophotometry
[8] = Antioxidant activity assessed as hydrogen peroxide scavenging activity at 125 uM by spectrophotometry
[9] = Antioxidant activity assessed as nitric oxide scavenging activity at 200 uM by spectrophotometry
[10] = Antioxidant activity assessed as peroxynitrite scavenging activity at 50 uM by spectrophotometry in presence of NaHCO3
[11] = Antioxidant activity assessed as peroxyl radical scavenging activity assessed as trolox equivalent at 1 uM by spectrophotometry
[12] = Antioxidant activity assessed as superoxide radical scavenging activity at 25 uM by spectrophotometry
[13] = Antioxidant activity assessed as peroxynitrite scavenging activity at 50 uM by spectrophotometry in absence of NaHCO3
[14] = Antioxidant activity assessed as hydrogen peroxide scavenging activity at 250 uM by spectrophotometry
[15] = Antioxidant activity assessed as hydrogen peroxide scavenging activity by spectrophotometry
[16] = Antioxidant activity assessed as superoxide radical scavenging activity at 200 uM by spectrophotometry
[17] = Antioxidant activity assessed as singlet oxygen scavenging activity by spectrophotometry

SMILES	IC50 [1]	IC50 [2]	IC50 [3]	IC50 [4]	IC50 [5]	IC50 [7]	trolox equivalent [6]	inhibition [14]	other results
O=c1c2ccccc2oc2cc(-c3ccc(O)cc3)c(-c3ccc(O)cc3)cc12	58400 nM	22400 nM	166000 nM	1720 nM	970 nM	108000 nM	2.88	–	inhibition [8]: inactive
O=c1c2ccccc2oc2cc(-c3ccccc3)c(-c3ccccc3)cc12	–	155000 nM	–	–	–	–	–	–	inhibition [1]: 27%; inhibition [9]: 39%; inhibition [10]: 29%; inhibition [11]: inactive; inhibition [12]: inactive; inhibition [13]: 48%; inhibition [8]: inactive
O=C1O[C@H]([C@@H](O)CO)C(O)=C1O [ASCORBIC ACID]	–	–	–	–	–	–	–	–	IC50 [15]: 602000 nM; IC50 [6]: 220 nM
O=c1c2ccccc2oc2cc(-c3ccccc3)c(-c3ccc(O)cc3)cc12	80000 nM	72100 nM	–	1550 nM	1800 nM	175000 nM	1.05	–	inhibition [16]: inactive; inhibition [8]: inactive
O=S(=O)(O)c1cc(O)c(O)c(S(=O)(=O)O)c1 [TIRON]	–	–	273000 nM	–	–	–	–	–	–
O=c1c2ccccc2oc2cc(-c3ccc(O)cc3)c(-c3ccccc3)cc12	68800 nM	53800 nM	–	2660 nM	2000 nM	–	2.08	–	inhibition [9]: 41%; inhibition [16]: inactive; inhibition [8]: inactive
O=c1c(O)c(-c2ccc(O)c(O)c2)oc2cc(O)cc(O)c12 [QUERCETIN]	–	–	–	–	–	–	–	–	IC50 [17]: 1800 nM
O=c1c2ccccc2[se]n1-c1ccccc1 [EBSELEN]	–	–	–	500 nM	2010 nM	–	–	–	–
O=C(O)CCCC[C@@H](S)CCS [DIHYDROLIPOIC ACID]	–	2300 nM	–	–	–	–	–	–	–

Second part, led by results:

IC50 [1]	IC50 [2]	IC50 [3]	IC50 [4]	IC50 [5]	IC50 [7]	SMILES	trolox equivalent [6]	inhibition [14]	other results
2500 nM	1200 nM	10400 nM	170 nM	330 nM	390 nM	O=c1c2ccccc2oc2cc(-c3ccc(O)c(O)c3)c(-c3ccc(O)c(O)c3)cc12	0.28	17%	–
6800 nM	7500 nM	31300 nM	220 nM	890 nM	620 nM	O=c1c2ccccc2oc2cc(-c3ccc(O)c(O)c3)c(-c3ccc(O)cc3)cc12	0.83	12%	–
4500 nM	10800 nM	76000 nM	370 nM	670 nM	1220 nM	O=c1c2ccccc2oc2cc(-c3ccc(O)c(O)c3)c(-c3ccccc3)cc12	0.84	9%	–
6000 nM	15700 nM	28100 nM	400 nM	540 nM	1880 nM	O=c1c2ccccc2oc2cc(-c3ccccc3)c(-c3ccc(O)c(O)c3)cc12	0.76	9%	–
3300 nM	14700 nM	20300 nM	260 nM	780 nM	420 nM	O=c1c2ccccc2oc2cc(-c3ccc(O)cc3)c(-c3ccc(O)c(O)c3)cc12	0.88	14%	–
–	–	–	–	–	2530 nM	C[C@@H]1O[C@@H](OC[C@H]2O[C@@H](Oc3c(-c4ccc(O)c(O)c4)oc4cc(O)cc(O)c4c3=O)[C@H](O)[C@@H](O)[C@@H]2O)[C@H](O)[C@H](O)[C@H]1O [RUTIN]	–	–	–
